# Reference: patent US8992998B2, “MAPK inhibition by H2” (priority 2010, dated 2015)
# How the values were obtained:
# p38b = p38b (Homo sapiens, UniProt Q15759); conditions: cited from earlier work
# p38gamma = molecular target: T1, p38gamma (Homo sapiens, UniProt P53778); conditions: cited from earlier work
# T1 sequence (P53778 1-367): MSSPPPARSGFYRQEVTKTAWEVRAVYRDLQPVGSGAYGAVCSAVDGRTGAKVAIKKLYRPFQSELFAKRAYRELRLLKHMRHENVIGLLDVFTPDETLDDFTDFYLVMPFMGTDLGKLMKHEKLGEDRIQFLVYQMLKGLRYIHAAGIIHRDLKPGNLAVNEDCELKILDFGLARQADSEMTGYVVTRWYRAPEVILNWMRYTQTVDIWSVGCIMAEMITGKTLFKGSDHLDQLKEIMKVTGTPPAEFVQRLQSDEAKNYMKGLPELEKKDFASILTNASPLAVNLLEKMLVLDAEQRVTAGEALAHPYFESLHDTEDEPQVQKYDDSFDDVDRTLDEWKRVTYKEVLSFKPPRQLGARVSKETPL
# p38delta = molecular target: T2, p38delta (Homo sapiens, UniProt O15264); conditions: cited from earlier work
# T2 sequence (O15264 1-365): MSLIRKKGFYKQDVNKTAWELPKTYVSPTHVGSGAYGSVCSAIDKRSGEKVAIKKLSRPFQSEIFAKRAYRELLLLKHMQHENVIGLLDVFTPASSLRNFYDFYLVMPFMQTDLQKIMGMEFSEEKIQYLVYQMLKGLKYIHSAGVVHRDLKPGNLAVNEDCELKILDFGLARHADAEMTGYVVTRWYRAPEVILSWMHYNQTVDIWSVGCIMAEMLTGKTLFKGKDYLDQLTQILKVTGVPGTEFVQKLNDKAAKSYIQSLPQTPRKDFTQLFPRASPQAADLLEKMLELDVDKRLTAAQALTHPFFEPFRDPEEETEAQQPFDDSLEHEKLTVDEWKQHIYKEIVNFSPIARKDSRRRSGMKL
# [1] = test system: LPS-induced endotoxin shock; assay: LPS-induced endotoxin shock in mice: survival rate and plasma/serum TNF-α and IL-6; format: in vivo, C57BL/6j mice
# BMMs = assay: Proinflammatory cytokine production (ELISA) from stimulated bone marrow derived macrophages; format: cell-based, mouse; conditions: for IL-6 production induced by LPS (Example 5): FIG. 5C
# [2] = test system: ROS (hydroxyl radical, superoxide, H2O2) in BMMs; assay: Intracellular ROS production in LPS-stimulated BMMs (HPF / CM-H2DCFDA fluorescence); format: cell-based, mouse
# Experimental: Invitrogen) detects superoxide, H2O2, and hydroxyl radical. […] After preculture, the cells were exposed to LPS ([…]) for 30 minutes and immediately HPF fluorescence or fluorophore DCF were detected at an excitation wavelength of 485 nm and an emission wavelength of 530 nm with a fluorometric imaging plate reader, Synergy HT (Biotech Instruments, Winooski, Vt.).
# [3] = test system: MAPKs (ERK, p38, and JNK); assay: Immunoblotting of MAPKs phosphorylation in stimulated BMMs; format: cell-based, mouse
# [4] = test system: MAPKs (ERK, p38, and JNK); assay: Phosphorylated MAPKs levels in peritoneal cells isolated from treated mice; format: in vivo, mouse; conditions: i.p., 45 minutes prior to isolation
# Experimental: After 45 minutes, peritoneal suspensions were obtained by peritoneal lavage as previously described. […] The peritoneal cells were immediately lysed in lysis buffer and performed Immunoblotting as described above.
# DCs = conditions: LPS stimulation
# [5] = test system: MAPKs (ERK, p38, and JNK); conditions: non-stimulated BMMs, time dependent
# MKP-1 = conditions: BMMs, within 20 minutes
# [6] = lethal dose of LPS, treatment i.p., plasma 4 hour after LPS
# Chain of p38b (Q15759 whole entry, species assumed): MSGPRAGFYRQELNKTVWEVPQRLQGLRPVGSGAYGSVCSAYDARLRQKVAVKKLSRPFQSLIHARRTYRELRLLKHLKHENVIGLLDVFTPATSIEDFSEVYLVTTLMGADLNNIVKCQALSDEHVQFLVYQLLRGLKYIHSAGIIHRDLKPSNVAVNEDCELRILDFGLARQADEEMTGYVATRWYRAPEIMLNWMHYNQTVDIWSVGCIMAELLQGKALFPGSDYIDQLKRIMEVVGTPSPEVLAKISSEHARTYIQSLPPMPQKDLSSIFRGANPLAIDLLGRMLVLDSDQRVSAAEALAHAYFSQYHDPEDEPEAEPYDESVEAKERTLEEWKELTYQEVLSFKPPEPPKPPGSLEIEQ
smiles,measurement,setting,value
C[S+]([O-])c1ccc(-c2nc(-c3ccncc3)c(-c3ccc(F)cc3)[nH]2)cc1 (stereo not drawn) [SB203580],sensitivity to inhibition,p38b,sensitive
same,sensitivity to inhibition,p38gamma,unaffected
same,sensitivity to inhibition,p38delta,unaffected
"CC(=O)N[C@@H](CS)C(=O)O [NAC, N-acetyl-L-cysteine, reference compound]",serum IL-6 production,[1]; [6],significantly suppressed
same,serum TNF-α production,[1]; [6],significantly suppressed
same,survival rate,"[1]; mouse, in vivo",20%
same,survival rate,"[1]; mouse, in vivo, ip",70%
same,IL-6 production induced by LPS (Example 5),BMMs,still inhibited
same,IL-6 production induced by PGN,BMMs,did not inhibit
same,IL-6 production induced by poly(I:C),BMMs,did not inhibit
same,TNF-α production induced by poly(I:C),BMMs,not
same,"LPS-mediated induction of fluorescence from DCF (superoxide, H2O2, or hydroxyl radical)",[2],remarkably inhibited
same,LPS-mediated induction of hydroxyl radical (HPF),[2],suppressed
same,PGN-induced phosphorylation of ERK and p38,[3],inhibited little or no
same,poly(I:C)-induced MAPKs phosphorylation,[3],not
same,phosphorylation of MAPKs in peritoneal cells,[4],did not reduce
"[HH] [H2, molecular hydrogen]",survival rate,"[1]; mouse, in vivo",90%
same,protection from lethal endotoxin shock,"[1]; mouse, in vivo, po",prevented the mice from lethal endotoxin shock
same,IL-6 production in serum,[1]; oral administration,down-regulation
same,TNF-a production in serum,[1]; oral administration,down-regulation
same,IL-6 production,BMMs; LPS stimulation,suppressed
same,IL-12p40 production,BMMs; LPS stimulation,suppressed
same,TNF-α production,BMMs; LPS stimulation,suppressed
same,IL-6 production induced by LPS (Example 5),BMMs,down-regulated
same,IL-6 production induced by PGN,BMMs,down-regulated
same,IL-6 production induced by poly(I:C),BMMs,down-regulated
same,TNF-α production induced by poly(I:C),BMMs,suppressed
same,"LPS-mediated induction of fluorescence from DCF (superoxide, H2O2, or hydroxyl radical)",[2],not affected
same,LPS-mediated induction of hydroxyl radical (HPF),[2],suppressed
same,phosphorylation level of MAPKs induced by LPS,"[3]; LPS, ERK, p38 and JNK",obviously decreased
same,"level of phosphorylated ERK, LPS-induced","[3]; LPS, FIG. 5E",decreased
same,PGN-induced phosphorylation of ERK and p38,[3],blocked
same,poly(I:C)-induced MAPKs phosphorylation,[3],attenuated
same,phosphorylation of MAPKs in peritoneal cells,[4],decreased
same,IL-6 production,DCs,suppressed
same,IL-12p40 production,DCs,suppressed
same,TNF-α production,DCs,suppressed
same,"basal levels of phosphorylated ERK, p38, and JNK",[5],decreased
same,expression of MKP-1 protein,MKP-1,up-regulated
same,H2 concentration at saturation,"PBS or culture medium, 25° C.",780 mM
same,pH,saturated H2 in water,7.6
same,redox potential (ORP level),saturated H2 in water,−511 mV
